The source of these data is publication PMC6009876, “Introduction of pyrrolidineoxy or piperidineamino group at the 4-position of quinazoline leading to novel quinazoline-based phosphoinositide 3-kinase delta (PI3Kδ) inhibitors” (Journal of Enzyme Inhibition and Medicinal Chemistry, 2018).

For one test, the system named is RPMI-8226. In words: Anti-proliferative activity, MTT reduction method. The format is cell-based. The following applies: Homo sapiens, mean of at least two experiments. In general terms: Tetrazolium assays rely on reduction of a dye to a coloured formazan, in cell work by metabolically active cells.
Another test deals with Raji. Kind of test: Anti-proliferative activity, MTT reduction method. Particulars: Homo sapiens, mean of at least two experiments. The format is cell-based.
Another test has as its system SU-DHL-6. In words: Anti-proliferative activity, CCK-8 method. The format is cell-based. Particulars: Homo sapiens, mean of at least two experiments.
Test [1] has as its target T1, PI3Kδ (Homo sapiens, UniProt O00329). Kind of test: PI3Kδ inhibitory activity. The following applies: mean of at least two experiments; for inhibition at 0.1 µM: at the concentration of 100 nM. In kind it is biochemical.
A further test deals with Ramos. In words: Anti-proliferative activity, MTT reduction method. In kind it is cell-based. Particulars: Homo sapiens, mean of at least two experiments.
For test [2], the target named is T1, PI3Kδ. Particulars: cited from earlier work.
A further test concerns the target PI3Kβ (Homo sapiens, UniProt P42338). Kind of test: PI3K isoform selectivity, p110β. The format is biochemical. The following applies: for IC50: mean of at least two experiments.
The next test addresses PI3Kα (Homo sapiens, UniProt P42336). In words: PI3K isoform selectivity, p110α. The following applies: for IC50: mean of at least two experiments. The format is biochemical.
In the next test the target is PI3Kγ (Homo sapiens, UniProt P48736). In words: PI3K isoform selectivity, p110γ. In kind it is biochemical. Particulars: for IC50: mean of at least two experiments.
Where [3] appears, read: Table 3 isoform selectivity, read-out: p110δ IC50.

SMILES strings stand for the structures. Where two headings read alike, the source gives them in different places.

PI3Kβ, sequence (P42338 whole entry, species assumed, canonical isoform): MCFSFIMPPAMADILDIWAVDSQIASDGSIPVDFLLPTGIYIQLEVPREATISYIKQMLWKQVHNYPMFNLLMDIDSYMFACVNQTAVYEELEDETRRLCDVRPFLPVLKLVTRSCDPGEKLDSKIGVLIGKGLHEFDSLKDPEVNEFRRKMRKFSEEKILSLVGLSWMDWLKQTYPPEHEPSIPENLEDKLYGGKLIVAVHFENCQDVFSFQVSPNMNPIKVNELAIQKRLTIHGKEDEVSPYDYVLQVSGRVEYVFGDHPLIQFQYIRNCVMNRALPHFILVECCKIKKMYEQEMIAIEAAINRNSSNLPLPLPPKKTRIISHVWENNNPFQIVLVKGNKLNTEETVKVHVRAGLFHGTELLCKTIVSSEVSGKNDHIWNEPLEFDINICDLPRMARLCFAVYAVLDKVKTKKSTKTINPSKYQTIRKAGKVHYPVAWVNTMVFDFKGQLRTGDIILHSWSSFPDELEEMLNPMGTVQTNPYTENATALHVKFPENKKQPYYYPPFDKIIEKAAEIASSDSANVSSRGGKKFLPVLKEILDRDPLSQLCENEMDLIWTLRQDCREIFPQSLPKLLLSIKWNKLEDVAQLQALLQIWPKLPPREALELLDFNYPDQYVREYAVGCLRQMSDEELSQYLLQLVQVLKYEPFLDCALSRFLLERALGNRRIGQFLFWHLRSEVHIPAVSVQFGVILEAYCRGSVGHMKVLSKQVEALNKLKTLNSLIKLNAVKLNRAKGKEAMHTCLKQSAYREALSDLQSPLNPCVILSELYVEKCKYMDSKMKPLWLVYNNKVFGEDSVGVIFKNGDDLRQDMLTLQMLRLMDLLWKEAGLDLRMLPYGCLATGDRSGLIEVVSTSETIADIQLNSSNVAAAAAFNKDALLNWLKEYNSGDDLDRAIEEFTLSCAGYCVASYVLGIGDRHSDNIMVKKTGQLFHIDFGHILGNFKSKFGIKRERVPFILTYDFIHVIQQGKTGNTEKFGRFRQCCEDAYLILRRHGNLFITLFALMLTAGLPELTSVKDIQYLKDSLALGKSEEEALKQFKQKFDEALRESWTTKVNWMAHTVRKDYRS
PI3Kβ, sequence (P27986 whole entry partner, species assumed, canonical isoform): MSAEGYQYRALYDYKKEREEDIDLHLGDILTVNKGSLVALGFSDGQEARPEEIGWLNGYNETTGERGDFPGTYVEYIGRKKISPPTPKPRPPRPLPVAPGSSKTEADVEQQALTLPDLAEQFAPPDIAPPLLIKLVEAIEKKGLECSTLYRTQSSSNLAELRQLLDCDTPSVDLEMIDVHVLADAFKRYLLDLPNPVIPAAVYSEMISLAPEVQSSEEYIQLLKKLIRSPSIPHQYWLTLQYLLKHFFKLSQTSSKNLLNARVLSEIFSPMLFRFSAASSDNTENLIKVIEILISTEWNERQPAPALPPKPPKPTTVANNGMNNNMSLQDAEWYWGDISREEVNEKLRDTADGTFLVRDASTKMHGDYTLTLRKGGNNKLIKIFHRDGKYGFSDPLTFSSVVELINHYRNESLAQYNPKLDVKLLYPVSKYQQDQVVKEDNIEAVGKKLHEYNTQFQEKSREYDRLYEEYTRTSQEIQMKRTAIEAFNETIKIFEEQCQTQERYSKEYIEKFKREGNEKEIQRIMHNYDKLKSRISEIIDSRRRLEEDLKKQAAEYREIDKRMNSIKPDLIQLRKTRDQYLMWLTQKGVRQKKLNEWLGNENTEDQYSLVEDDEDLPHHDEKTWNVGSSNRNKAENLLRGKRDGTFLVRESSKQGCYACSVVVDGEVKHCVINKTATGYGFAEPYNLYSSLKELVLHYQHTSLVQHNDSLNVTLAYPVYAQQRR
PI3Kα, sequence (P42336 whole entry, species assumed, canonical isoform): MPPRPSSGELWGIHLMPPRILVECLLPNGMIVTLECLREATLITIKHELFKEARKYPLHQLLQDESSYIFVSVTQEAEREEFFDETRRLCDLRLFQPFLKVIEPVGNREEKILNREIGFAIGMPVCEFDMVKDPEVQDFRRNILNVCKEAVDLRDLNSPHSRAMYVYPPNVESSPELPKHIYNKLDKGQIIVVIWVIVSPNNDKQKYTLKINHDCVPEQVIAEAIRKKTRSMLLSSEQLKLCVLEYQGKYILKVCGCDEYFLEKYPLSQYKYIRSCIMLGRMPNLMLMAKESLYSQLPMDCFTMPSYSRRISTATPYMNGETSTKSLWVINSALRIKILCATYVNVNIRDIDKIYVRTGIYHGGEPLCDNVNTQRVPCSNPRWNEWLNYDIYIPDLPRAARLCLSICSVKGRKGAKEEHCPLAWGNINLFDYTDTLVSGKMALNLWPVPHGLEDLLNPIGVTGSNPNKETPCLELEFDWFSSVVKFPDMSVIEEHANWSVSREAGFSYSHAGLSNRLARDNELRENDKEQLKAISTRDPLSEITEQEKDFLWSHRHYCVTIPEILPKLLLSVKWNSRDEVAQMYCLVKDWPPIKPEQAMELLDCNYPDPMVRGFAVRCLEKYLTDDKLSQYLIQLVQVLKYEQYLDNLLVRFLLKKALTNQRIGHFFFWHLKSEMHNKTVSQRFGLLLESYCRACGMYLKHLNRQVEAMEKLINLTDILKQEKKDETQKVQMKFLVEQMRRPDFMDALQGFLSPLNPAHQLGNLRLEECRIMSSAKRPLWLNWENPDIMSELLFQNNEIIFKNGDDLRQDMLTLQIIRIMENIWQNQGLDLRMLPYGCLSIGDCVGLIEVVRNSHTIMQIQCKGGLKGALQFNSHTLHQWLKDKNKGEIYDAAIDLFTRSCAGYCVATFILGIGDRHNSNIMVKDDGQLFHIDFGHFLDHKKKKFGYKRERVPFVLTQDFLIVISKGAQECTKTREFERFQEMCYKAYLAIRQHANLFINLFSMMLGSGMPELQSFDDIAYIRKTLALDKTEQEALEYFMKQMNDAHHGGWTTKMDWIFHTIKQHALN
PI3Kα, sequence (P27986 whole entry partner, species assumed, canonical isoform): as the sequence (P27986 whole entry partner, species assumed, canonical isoform) above
PI3Kγ, sequence (P48736 whole entry, species assumed, canonical isoform): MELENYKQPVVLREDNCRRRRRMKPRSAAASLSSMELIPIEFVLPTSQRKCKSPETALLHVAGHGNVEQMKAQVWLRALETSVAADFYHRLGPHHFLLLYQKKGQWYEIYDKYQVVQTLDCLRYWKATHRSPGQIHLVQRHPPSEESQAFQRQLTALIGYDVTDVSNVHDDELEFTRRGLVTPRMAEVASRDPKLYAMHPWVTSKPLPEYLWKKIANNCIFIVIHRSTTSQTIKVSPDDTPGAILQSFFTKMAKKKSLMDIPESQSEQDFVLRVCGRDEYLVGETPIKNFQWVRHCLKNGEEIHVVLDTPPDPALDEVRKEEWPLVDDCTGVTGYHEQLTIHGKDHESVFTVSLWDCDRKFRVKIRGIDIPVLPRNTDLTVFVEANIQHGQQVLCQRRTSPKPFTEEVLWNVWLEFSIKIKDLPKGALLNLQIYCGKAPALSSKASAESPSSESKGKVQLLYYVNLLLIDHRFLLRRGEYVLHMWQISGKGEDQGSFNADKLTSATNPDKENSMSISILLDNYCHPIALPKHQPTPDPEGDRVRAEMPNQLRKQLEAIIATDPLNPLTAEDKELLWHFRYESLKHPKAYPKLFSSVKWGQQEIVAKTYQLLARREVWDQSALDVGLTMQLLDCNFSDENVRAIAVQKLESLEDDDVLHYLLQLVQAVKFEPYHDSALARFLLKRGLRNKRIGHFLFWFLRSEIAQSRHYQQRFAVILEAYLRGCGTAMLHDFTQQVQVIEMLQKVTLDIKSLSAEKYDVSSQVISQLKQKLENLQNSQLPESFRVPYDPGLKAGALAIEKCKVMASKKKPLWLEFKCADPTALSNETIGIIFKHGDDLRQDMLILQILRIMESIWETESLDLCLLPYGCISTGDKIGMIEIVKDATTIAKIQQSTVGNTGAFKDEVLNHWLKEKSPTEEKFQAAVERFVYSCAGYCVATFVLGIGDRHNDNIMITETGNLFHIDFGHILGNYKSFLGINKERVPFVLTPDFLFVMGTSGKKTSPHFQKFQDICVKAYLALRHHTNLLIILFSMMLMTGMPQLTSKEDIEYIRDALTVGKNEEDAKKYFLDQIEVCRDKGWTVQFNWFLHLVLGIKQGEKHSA
T1 sequence (O00329 whole entry): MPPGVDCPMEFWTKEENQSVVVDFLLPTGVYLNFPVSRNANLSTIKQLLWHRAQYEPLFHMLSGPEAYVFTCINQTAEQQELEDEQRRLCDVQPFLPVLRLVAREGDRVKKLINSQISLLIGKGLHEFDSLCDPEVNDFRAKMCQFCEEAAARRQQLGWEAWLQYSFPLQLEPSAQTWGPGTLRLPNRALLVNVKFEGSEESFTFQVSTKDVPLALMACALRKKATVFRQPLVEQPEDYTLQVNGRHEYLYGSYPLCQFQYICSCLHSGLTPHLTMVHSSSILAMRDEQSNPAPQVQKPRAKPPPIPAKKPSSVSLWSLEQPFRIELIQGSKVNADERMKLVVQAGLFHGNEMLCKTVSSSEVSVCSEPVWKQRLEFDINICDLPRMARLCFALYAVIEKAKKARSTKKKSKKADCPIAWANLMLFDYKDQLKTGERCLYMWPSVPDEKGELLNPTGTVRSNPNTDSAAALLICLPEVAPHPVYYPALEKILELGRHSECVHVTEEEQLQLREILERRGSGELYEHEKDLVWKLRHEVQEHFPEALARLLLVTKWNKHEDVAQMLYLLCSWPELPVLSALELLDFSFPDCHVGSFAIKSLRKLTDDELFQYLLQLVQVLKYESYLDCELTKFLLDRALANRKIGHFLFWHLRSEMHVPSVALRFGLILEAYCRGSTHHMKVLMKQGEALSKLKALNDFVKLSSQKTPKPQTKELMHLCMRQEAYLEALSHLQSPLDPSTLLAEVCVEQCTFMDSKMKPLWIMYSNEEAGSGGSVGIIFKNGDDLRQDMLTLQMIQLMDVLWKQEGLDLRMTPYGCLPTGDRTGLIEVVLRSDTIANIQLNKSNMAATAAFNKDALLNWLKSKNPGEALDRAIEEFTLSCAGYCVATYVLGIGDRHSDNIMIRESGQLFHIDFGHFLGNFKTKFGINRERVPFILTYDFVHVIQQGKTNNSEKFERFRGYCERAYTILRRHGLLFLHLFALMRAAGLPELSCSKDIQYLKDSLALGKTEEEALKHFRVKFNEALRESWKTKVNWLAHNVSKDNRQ
T1 sequence (P27986 whole entry partner): as the sequence (P27986 whole entry partner, species assumed, canonical isoform) above

Take `CC[C@H](Nc1ncnc2[nH]cnc12)c1nc2cccc(F)c2c(=O)n1-c1ccccc1` [Compound 1, idelalisib, reference compound]: the 50% inhibitory concentration (IC50) in the test with RPMI-8226 is 5.49 µM; in the test with Raji, 9.95 µM; in the test on SU-DHL-6 it was 650 nM; in the test on Ramos, above 10000 nM. This compound returned an inhibition at 0.1 µM against PI3Kδ [1] of 96%.
Consider `C[C@H](Nc1nc(N)nc(N)c1C#N)c1nc2cccc(F)c2c(=O)n1-c1cc(F)cc(F)c1` [Compound 3], for which, at PI3Kδ [2] (idelalisib-derived analogues), the concentration for half-maximal inhibition (IC50) was 2.2 nM.
On to `COc1ncc(-c2ccc3ncnc(Nc4cccc(C(=O)N5CCOCC5)c4)c3c2)cc1C#N` [Compound 8], for which, on PI3Kδ [2] (4-anilinequinazoline), the IC50 was 9.3 nM.
For the compound `COc1ccc(-c2ccc3ncnc(O[C@H]4CCN(C(=O)OC(C)(C)C)C4)c3c2)cn1` [Compound 12a], at PI3Kδ [1], the inhibition at 0.1 µM is 79%.
The compound `COc1ccc(-c2ccc3ncnc(O[C@H]4CCN(C(=O)C5CC5)C4)c3c2)cn1` [Compound 12b] returned an inhibition at 0.1 µM against PI3Kδ [1] of 90%. Besides, at PI3Kδ [1] (read-out: PI3Kδ IC50), the IC50 was 9.3 nM.
On PI3Kδ [1], `COc1ccc(-c2ccc3ncnc(O[C@H]4CCN(C(=O)C5CCC5)C4)c3c2)cn1` [Compound 12c] returned an inhibition at 0.1 µM of 96%. The IC50 at PI3Kδ [1] (read-out: PI3Kδ IC50) stood at 6.1 nM.
In the case of `COc1ccc(-c2ccc3ncnc(O[C@H]4CCN(C(=O)C5CCOCC5)C4)c3c2)cn1` [Compound 12d], the half-inhibitory concentration (IC50) in the test with RPMI-8226 is 0.44 µM; with Raji it was 9.81 µM; at PI3Kβ it was 592 nM; with SU-DHL-6, 3230 nM; on PI3Kδ [1] (setting [3]) it was 4.9 nM; on PI3Kδ [1] (read-out: PI3Kδ IC50), 4.9 nM. Further, the IC50 stood at 50.4 nM on PI3Kα, 1340 nM with Ramos and 468 nM against PI3Kγ. Besides, the “PI3Kδ selectivity over PI3Kβ” value on PI3Kβ is 131 fold. On PI3Kδ [1], this compound yielded an inhibition at 0.1 µM of 98%. In addition, the “PI3Kδ selectivity over PI3Kα” value on PI3Kα was 11 fold. Further, the “PI3Kδ selectivity over PI3Kγ” value on PI3Kγ is listed as 103 fold.
With `COc1ccc(-c2ccc3ncnc(O[C@H]4CCN(C(=O)C(C)(C)C)C4)c3c2)cn1` [Compound 12e], at PI3Kδ [1], the inhibition at 0.1 µM was determined as 53%.
For the compound `COc1ccc(-c2ccc3ncnc(N[C@H]4CCCN(C(=O)OC(C)(C)C)C4)c3c2)cn1` [Compound 14a], the inhibition at 0.1 µM on PI3Kδ [1] came to 51%.
Turning to `COc1ccc(-c2ccc3ncnc(N[C@H]4CCCN(C(=O)C5CC5)C4)c3c2)cn1` [Compound 14b], the IC50 with RPMI-8226 is 8.66 µM; in the test with Raji, 0.81 µM; against PI3Kβ, 317 nM; with SU-DHL-6, 1040 nM; on PI3Kδ [1] (setting [3]), 3 nM; on PI3Kδ [1] (read-out: PI3Kδ IC50), 3 nM. Moreover, the figures for the half-inhibitory concentration (IC50) against PI3Kα, with Ramos and at PI3Kγ were 36.6 nM, 1340 nM and 104 nM, respectively. The “PI3Kδ selectivity over PI3Kβ” value at PI3Kβ is given as 105 fold. On PI3Kδ [1], this compound had an inhibition at 0.1 µM of 94%. Further, the “PI3Kδ selectivity over PI3Kα” value at PI3Kα is 12 fold. Moreover, the “PI3Kδ selectivity over PI3Kγ” value at PI3Kγ was 34 fold.
As to `COc1ccc(-c2ccc3ncnc(N[C@H]4CCCN(C(=O)C5CCC5)C4)c3c2)cn1` [Compound 14c], at PI3Kβ, the “PI3Kδ selectivity over PI3Kβ” value is on record as 96 fold. Moreover, the 50% inhibitory concentration (IC50) came to 376 nM against PI3Kβ; 1490 nM with SU-DHL-6; 3.9 nM at PI3Kδ [1] (setting [3]); 3.9 nM at PI3Kδ [1] (read-out: PI3Kδ IC50); 58.9 nM against PI3Kα; 121 nM against PI3Kγ. Further, on PI3Kδ [1], the inhibition at 0.1 µM worked out at 91%. The “PI3Kδ selectivity over PI3Kα” value at PI3Kα came to 15 fold. Moreover, the “PI3Kδ selectivity over PI3Kγ” value at PI3Kγ worked out at 31 fold.
Compound `COc1ccc(-c2ccc3ncnc(N[C@H]4CCCN(C(=O)C5CCCC5)C4)c3c2)cn1` [Compound 14d] registered an inhibition at 0.1 µM against PI3Kδ [1] of 91%. Also, at PI3Kδ [1] (read-out: PI3Kδ IC50), the IC50 was 8.7 nM.
In the case of `COc1ccc(-c2ccc3ncnc(N[C@H]4CCCN(C(=O)C5CCOCC5)C4)c3c2)cn1` [Compound 14e], at 0.1 µM the inhibition against PI3Kδ [1] was 88%. Moreover, the half-maximal inhibitory concentration (IC50) on PI3Kδ [1] (read-out: PI3Kδ IC50) came out at 5.2 nM.
`COc1ccc(-c2ccc3ncnc(N[C@H]4CCCN(C(=O)C(C)(C)C)C4)c3c2)cn1` [Compound 14f] came in with an inhibition at 0.1 µM against PI3Kδ [1] of 54%.
The same measure, in the same setting: the result for `COc1ccc(-c2ccc3ncnc(NC4CCN(C(=O)OC(C)(C)C)CC4)c3c2)cn1` [Compound 16a] reads 72%.
The same measure, in the same setting: the figure for `COc1ccc(-c2ccc3ncnc(NC4CCN(C(=O)C5CC5)CC4)c3c2)cn1` [Compound 16b] is 70%.
On to `COc1ccc(-c2ccc3ncnc(NC4CCN(C(=O)C5CCOCC5)CC4)c3c2)cn1` [Compound 16c], for which the inhibition at 0.1 µM against PI3Kδ [1] came out at 48%.
`O=C(CCCCCCC(=O)Nc1ccccc1)NO` [SAHA, vorinostat, reference compound] registered an IC50 with RPMI-8226 of 0.66 µM.

The IC50 is the concentration at which inhibition is half-maximal. As a reminder, the inhibition is the drop in the measured response relative to a control, in per cent. High values mean strong suppression, low ones little suppression.
